# In patent publication US10227323B2, “Glucosylceramide synthase inhibitors for the treatment of diseases” (BIOMARIN PHARMACEUTICAL INC., priority 2013, dated 2019):
# Target: T1, GCS (Canis lupus familiaris, UniProt A0A8I3MXG6)
# T1 sequence (A0A8I3MXG6 1-394): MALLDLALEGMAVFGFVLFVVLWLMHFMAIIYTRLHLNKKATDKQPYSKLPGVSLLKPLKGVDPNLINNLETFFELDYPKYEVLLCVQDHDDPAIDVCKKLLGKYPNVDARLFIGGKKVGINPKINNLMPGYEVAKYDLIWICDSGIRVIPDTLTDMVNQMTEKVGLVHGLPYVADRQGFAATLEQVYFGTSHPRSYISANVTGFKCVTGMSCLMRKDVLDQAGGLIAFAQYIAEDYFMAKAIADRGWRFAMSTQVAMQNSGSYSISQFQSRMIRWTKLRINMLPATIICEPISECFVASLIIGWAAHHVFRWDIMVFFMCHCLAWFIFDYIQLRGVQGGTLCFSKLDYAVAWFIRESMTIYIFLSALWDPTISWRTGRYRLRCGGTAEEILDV
# Experiment: Assay 1: GCS Enzymatic Assay (MDCK cell lysate, C6-NBD-Ceramide, LC/MS)
# Format: biochemical, canine
# Conditions: Table 1; MDCK cell lysate; read-out: IC50 (nM) generated from Assay 1
# How it was run: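 LC/MS/MS measurement of glucosylceramide and NBD-ceramide after a 1 h, 37 °C reaction with 100 μM UDP-glucose and 10 μM C6-NBD-ceramide gave IC50s or percent inhibition.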
row,Structure (SMILES),IC50
1,"O=C(N[C@H](CN1CCCC1)[C@H](O)c1ccc2c(c1)OCCO2)C(F)(F)c1cc2cc(Br)ccc2o1 [Compound 31, 2-(5-bromobenzofuran-2-yl)-N-((1R,2R)-1-(2,3-dihydrobenzo[b][1,4]dioxin-6-yl)-1-hydroxy-3-(pyrrolidin-1-yl)propan-2-yl)-2,2-difluoroacetamide]",< 50 nM
2,"O=C(N[C@H](CN1CCCC1)[C@H](O)c1ccc2c(c1)OCCO2)C(F)(F)C1Cc2ccc(-c3ccccn3)cc2C1 (stereo partly drawn) [Compound 50, N-((1R,2R)-1-(2,3-dihydrobenzo[b][1,4]dioxin-6-yl)-1-hydroxy-3-(pyrrolidin-1-yl)propan-2-yl)-2,2-difluoro-2-(5-(pyridin-2-yl)-2,3-dihydro-1H-inden-2-yl)acetamide]",< 50 nM
3,"O=C(N[C@H](CN1CC2CCC1C2)[C@H](O)c1ccc2c(c1)OCCO2)C(F)(F)c1cc2cc(Cl)ccc2o1 (stereo partly drawn) [Compound 51, N-((1R,2R)-3-(2-azabicyclo[2.2.1]heptan-2-yl)-1-(2,3-dihydrobenzo[b][1,4]dioxin-6-yl)-1-hydroxypropan-2-yl)-2-(5-chlorobenzofuran-2-yl)-2,2-difluoroacetamide]",< 50 nM

# Same assay, conditions: Table 1; values marked *; MDCK cell lysate
row,Structure (SMILES),% inhibition generated from Assay 1
1,"[2H][C@](O)(c1ccc2c(c1)OCCO2)[C@@H](CN1CCCC1)NC(=O)C(F)(F)c1cc2cc(Cl)ccc2o1 [Compound 57C, 2-(5-chlorobenzofuran-2-yl)-N-((1S,2R)-1-(2,3-dihydrobenzo[b][1,4]dioxin-6-yl)-1-deutero-1-hydroxy-3-(pyrrolidin-1-yl)propan-2-yl)-2,2-difluoroacetamide]",B* (the compound had a % inhibition of greater than or equal to about 3% but less than about 50%)
2,"Cn1ncc2ccc([C@H](O)[C@@H](CN3CCCC3)NC(=O)C(F)(F)c3cc4cc(Cl)ccc4o3)cc21 [Compound 54G, 2-(5-chlorobenzofuran-2-yl)-2,2-difluoro-N-((1S,2R)-1-hydroxy-1-(1-methyl-1H-indazol-6-yl)-3-(pyrrolidin-1-yl)propan-2-yl)acetamide]",B* (the compound had a % inhibition of greater than or equal to about 3% but less than about 50%)

# Same assay, conditions: Table 2; data marked by *
row,Structure (SMILES),% inhibition generated from Assay 1
1,"O=C(N[C@H](CN1CCCC1)[C@H](O)c1ccc2c(c1)OCCO2)C(F)(F)c1ccc(-c2ccc(F)cn2)cc1 [Compound 179, N-((1R,2R)-1-(2,3-dihydrobenzo[b][1,4]dioxin-6-yl)-1-hydroxy-3-(pyrrolidin-1-yl)propan-2-yl)-2,2-difluoro-2-(4-(5-fluoropyridin-2-yl)phenyl)acetamide]",A* (the compound had a % inhibition of a percent inhibition of greater than or equal to about 50%)
2,"O=C(N[C@H](CN1CCCC1)[C@H](O)c1ccc(OCC(F)(F)F)nc1)C(F)(F)C1Cc2ccc(Cl)cc2C1 (stereo partly drawn) [Compound 91, 2-(5-chloro-2,3-dihydro-1H-inden-2-yl)-2,2-difluoro-N-((1R,2R)-1-hydroxy-3-(pyrrolidin-1-yl)-1-(6-(2,2,2-trifluoroethoxy)pyridin-3-yl)propan-2-yl)acetamide]",B* (the compound had a % inhibition of greater than or equal to about 3% but less than about 50%)
3,"O=C(N[C@H](CN1CCCC1)[C@H](O)c1ccc(OC2CC2)c(C(F)(F)F)c1)C(=O)c1ccc(-c2ccc(F)cc2)cc1 [Example 265, N-((1R,2R)-1-(4-cyclopropoxy-3-(trifluoromethyl)phenyl)-1-hydroxy-3-(pyrrolidin-1-yl)propan-2-yl)-2-(4′-fluoro-[1,1′-biphenyl]-4-yl)-2-oxoacetamide]",B* (the compound had a % inhibition of greater than or equal to about 3% but less than about 50%)
4,"O=C(N[C@H](CN1CCCC1)[C@H](O)c1ccc2c(c1)OCCO2)C(=O)c1csc(-c2ccc(F)cc2)n1 [Compound 229, N-((1R,2R)-1-(2,3-dihydrobenzo[b][1,4]dioxin-6-yl)-1-hydroxy-3-(pyrrolidin-1-yl)propan-2-yl)-2-(2-(4-fluorophenyl)thiazol-4-yl)-2-oxoacetamide]",B* (the compound had a % inhibition of greater than or equal to about 3% but less than about 50%)
5,"O=C(N[C@H](CN1CCCC1)[C@H](O)c1ccc(OC2CC2)c(Cl)c1)C(F)(F)c1ccc(-c2ccc(F)cn2)cc1 [Compound 178, N-((1R,2R)-1-(3-chloro-4-cyclopropoxyphenyl)-1-hydroxy-3-(pyrrolidin-1-yl)propan-2-yl)-2,2-difluoro-2-(4-(5-fluoropyridin-2-yl)phenyl)acetamide]",A* (the compound had a % inhibition of a percent inhibition of greater than or equal to about 50%)

# Same assay, conditions: Table 2; data without asterisk; read-out: IC50 (nM) generated from Assay 1
row,Structure (SMILES),IC50
1,"Cc1c2cc(-c3ccc(C(=O)C(=O)N[C@H](CN4CCCC4)[C@H](O)c4ccc(OC5CC5)c(Cl)c4)cc3)ccc2nn1C(C)C [Example 310, N-((1R,2R)-1-(3-chloro-4-cyclopropoxyphenyl)-1-hydroxy-3-(pyrrolidin-1-yl)propan-2-yl)-2-(4-(2-isopropyl-3-methyl-2H-indazol-5-yl)phenyl)-2-oxoacetamide]",< 50 nM
2,"O=C(N[C@H](CN1CCCC1)[C@H](O)c1ccc(OC2CC2)c(F)c1)C(F)(F)c1cc2cc(Cl)ccc2o1 [Compound 126, 2-(5-chlorobenzofuran-2-yl)-N-((1R,2R)-1-(4-cyclopropoxy-3-fluorophenyl)-1-hydroxy-3-(pyrrolidin-1-yl)propan-2-yl)-2,2-difluoroacetamide]",< 50 nM
3,"Cn1ncc2cc(-c3ccc(C(=O)C(=O)N[C@H](CN4CCCC4)[C@H](O)c4ccc(OC5CC5)c(Cl)c4)cc3)ccc21 [Compound 205, N-((1R,2R)-1-(3-chloro-4-cyclopropoxyphenyl)-1-hydroxy-3-(pyrrolidin-1-yl)propan-2-yl)-2-(4-(1-methyl-1H-indazol-5-yl)phenyl)-2-oxoacetamide]",< 50 nM
4,"O=C(N[C@H](CN1CCCC1)[C@H](O)c1cc(F)c2c(c1)OCCO2)C(=O)c1cc2cc(Cl)ccc2o1 [Compound 95, 2-(5-chlorobenzofuran-2-yl)-N-((1R,2R)-1-(8-fluoro-2,3-dihydrobenzo[b][1,4]dioxin-6-yl)-1-hydroxy-3-(pyrrolidin-1-yl)propan-2-yl)-2-oxoacetamide]",< 50 nM
5,"C=C(C)c1ccc(-c2ccc(C(=O)C(=O)N[C@H](CN3CCCC3)[C@H](O)c3ccc(OC4CC4)c(Cl)c3)cc2)cc1 [Example 355, N-((1R,2R)-1-(3-chloro-4-cyclopropoxyphenyl)-1-hydroxy-3-(pyrrolidin-1-yl)propan-2-yl)-2-oxo-2-(4′-(prop-1-en-2-yl)-[1,1′-biphenyl]-4-yl)acetamide]",< 50 nM
6,"O=C(N[C@H](CN1CCCC1)[C@H](O)c1ccc(OC2CC2)c(Cl)c1)/C(=N/O)c1ccc(-c2ccc(F)cc2)cc1 [Compound 153, (E)-N-((1R,2R)-1-(3-chloro-4-cyclopropoxyphenyl)-1-hydroxy-3-(pyrrolidin-1-yl)propan-2-yl)-2-(4′-fluoro-[1,1′-biphenyl]-4-yl)-2-(hydroxyimino)acetamide]",< 50 nM
7,"O=C(N[C@H](CN1CCCC1)[C@H](O)c1ccc(OC2CC2)cc1)C(=O)c1ccc(N2CCOCC2)cc1 [Compound 374, N-((1R,2R)-1-(4-cyclopropoxyphenyl)-1-hydroxy-3-(pyrrolidin-1-yl)propan-2-yl)-2-(4-morpholinophenyl)-2-oxoacetamide]",50 to 5000 nM
8,"Cc1c2ccc(-c3ccc(C(=O)C(=O)N[C@H](CN4CCCC4)[C@H](O)c4ccc(OC5CC5)c(Cl)c4)cc3)cc2nn1C(C)C [Example 336, N-((1R,2R)-1-(3-chloro-4-cyclopropoxyphenyl)-1-hydroxy-3-(pyrrolidin-1-yl)propan-2-yl)-2-(4-(2-isopropyl-3-methyl-2H-indazol-6-yl)phenyl)-2-oxoacetamide]",< 50 nM
9,"Cn1ncc2ccc(-c3ccc(C(F)(F)C(=O)N[C@H](CN4CCCC4)[C@H](O)c4ccc5c(c4)OCCO5)cc3)cc21 [Compound 235, N-((1R,2R)-1-(2,3-dihydrobenzo[b][1,4]dioxin-6-yl)-1-hydroxy-3-(pyrrolidin-1-yl)propan-2-yl)-2,2-difluoro-2-(4-(1-methyl-1H-indazol-6-yl)phenyl)acetamide]",< 50 nM
10,"COc1c(F)cc([C@@H](O)[C@@H](CN2CCCC2)NC(=O)C(=O)c2cc3ccc(Cl)cc3s2)cc1OC(C)C [Compound 364, 2-(6-chlorobenzo[b]thiophen-2-yl)-N-((1R,2R)-1-(3-fluoro-5-isopropoxy-4-methoxyphenyl)-1-hydroxy-3-(pyrrolidin-1-yl)propan-2-yl)-2-oxoacetamide]",50 to 5000 nM
11,"O=C(CCc1ccc2ccccc2c1)C(=O)N[C@H](CN1CCCC1)[C@H](O)c1cc(F)c2c(c1)OCCO2 [Compound 143, N-((1R,2R)-1-(8-fluoro-2,3-dihydrobenzo[b][1,4]dioxin-6-yl)-1-hydroxy-3-(pyrrolidin-1-yl)propan-2-yl)-4-(naphthalen-2-yl)-2-oxobutanamide]",< 50 nM

# Same assay, conditions: Table 3; MDCK cell lysate; read-out: IC50 (nM) generated from Assay 1
row,Structure (SMILES),IC50
1,"O=C(N[C@H](CN1CCCC1)[C@H](O)c1ccc(OC2CC2)c(Cl)c1)C(=O)c1ccc(-n2nccn2)cc1 [Example 403, 2-(4-(2H-1,2,3-triazol-2-yl)phenyl)-N-((1R,2R)-1-(3-chloro-4-cyclopropoxyphenyl)-1-hydroxy-3-(pyrrolidin-1-yl)propan-2-yl)-2-oxoacetamide]",< 50 nM
